Laboratory results reported in patent US20220372585A1, “Sensors for Aromatic Compounds and Methods of Making and Using Same” (Washington University, priority 2021, published 2022).
Values joined by “and” are separate entries in the source; they are usually repeats but may differ in a detail not shown here. Equal entries are not always repeated. “Also recorded” adds a separate entry of the source.

Key:
Assay type in all cases: cell-based, E. coli
E274Q+C7V TyrR = molecular target: T1, E274Q+C7V TyrR (Escherichia coli, UniProt P07604, C7V/E274Q); assay: PtyrP-GFP reporter, E274Q+C7V TyrR (pAGR160) in EcN
T1 construct: expressed in transfected cells; host or cells: E. coli Nissle 1917 (EcN), plasmid pAGR160
T1 sequence (P07604 whole entry C7V/E274Q): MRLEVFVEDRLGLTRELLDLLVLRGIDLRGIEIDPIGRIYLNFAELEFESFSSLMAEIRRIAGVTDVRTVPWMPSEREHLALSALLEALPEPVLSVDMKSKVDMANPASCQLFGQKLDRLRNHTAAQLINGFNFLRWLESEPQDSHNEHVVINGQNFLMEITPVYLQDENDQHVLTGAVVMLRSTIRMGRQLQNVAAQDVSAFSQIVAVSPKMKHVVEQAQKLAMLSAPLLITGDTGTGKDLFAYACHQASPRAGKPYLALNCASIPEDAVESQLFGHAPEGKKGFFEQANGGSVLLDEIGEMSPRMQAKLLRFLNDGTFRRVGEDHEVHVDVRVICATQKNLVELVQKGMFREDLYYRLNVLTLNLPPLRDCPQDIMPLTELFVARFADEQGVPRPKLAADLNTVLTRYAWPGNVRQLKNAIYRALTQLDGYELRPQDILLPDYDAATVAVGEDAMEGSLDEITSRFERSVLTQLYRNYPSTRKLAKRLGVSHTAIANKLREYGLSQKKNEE
Procedure: (§1) Everything but (Eb) medium was prepared by supplementing M9 minimal medium with 1 mM MgSO4, […]), 0.4% w/v glucose, and all non-aromatic amino acids (0.8 mM alanine, 5 mM arginine, 0.4 mM asparagine, 0.4 mM aspartate, 0.1 mM cysteine, 0.6 mM glutamate, 0.6 mM glutamine, 0.8 mM glycine, 0.2 mM histidine, 0.4 mM isoleucine, 0.8 mM leucine, 0.4 mM lysine, 0.2 mM methionine, 0.4 mM proline, 10 mM serine, 0.4 mM threonine, and 0.6 mM valine). […] Experimental cultures were prepared by diluting overnight cultures 200× into 0.6 mL fresh Eb medium supplemented with the respective ligands (Phe and Tyr) in 2 mL 96-deep well plates (Eppendorf, Hamburg, Germany). Cultures were grown for 8 h at 37° C. and 250 rpm before sampled for fluorimetry or flow cytometry analysis. All medium was supplemented with the relevant antibiotics for plasmid maintenance (34 mg/ml chloramphenicol and 100 mg/ml spectinomycin).
(§2) […] culture samples were collected and transferred to 96-well assay microplates (clear, flat bottom black, Greiner Bio-One). The fluorescence and culture absorbance (Abs) were measured using a Tecan microplate reader (Infinite M200 Pro) as previously described. The fluorescence of GFP was measured with an excitation at 483 nm and emission at 530 nm. The Abs of the samples was measured at 600 nm. The measured fluorescence was normalized by dividing by the Abs and subtracting the same ratio obtained from non-fluorescent wild-type cells (Equation 1).
(§3) Flow cytometry was performed as previously described. […] Cytometry data was gated by forward and side scatter.

E274Q+T14G TyrR = molecular target: T2, E274Q+T14G TyrR (Escherichia coli, UniProt P07604, E274Q/T14G); assay: PtyrP-GFP reporter, E274Q+T14G TyrR (pAGR156) in EcN
T2 construct: expressed in transfected cells; host or cells: E. coli Nissle 1917 (EcN), plasmid pAGR156
T2 sequence (P07604 whole entry T14G/E274Q): as the sequence (P07604 whole entry C7V/E274Q) above, with V7C, T14G counted along it
Procedure: as §1, §2, §3

E274Q+D103H TyrR = molecular target: T3, E274Q+D103H TyrR (Escherichia coli, UniProt P07604, D103H/E274Q); assay: PtyrP-GFP reporter, E274Q+D103H TyrR (pAGR158) in EcN
T3 construct: expressed in transfected cells; host or cells: E. coli Nissle 1917 (EcN), plasmid pAGR158
T3 sequence (P07604 whole entry D103H/E274Q): as the sequence (P07604 whole entry C7V/E274Q) above, with V7C, D103H counted along it
Procedure: as §1, §2, §3

E274Q+L11G TyrR = molecular target: T4, E274Q+L11G TyrR (Escherichia coli, UniProt P07604, E274Q/L11G); assay: PtyrP-GFP reporter, E274Q+L11G TyrR (pAGR155) in EcN
T4 construct: expressed in transfected cells; host or cells: E. coli Nissle 1917 (EcN), plasmid pAGR155
T4 sequence (P07604 whole entry L11G/E274Q): as the sequence (P07604 whole entry C7V/E274Q) above, with V7C, L11G counted along it
Procedure: as §1, §2, §3

[1] = molecular target: T5, E274Q TyrR with T14V and D103S combined (Escherichia coli, UniProt P07604, D103S/E274Q/T14V); assay: PtyrP-GFP reporter, E274Q TyrR with both T14V and D103S mutations combined; conditions: both mutations (T14V, D103S) combined in E274Q TyrR
T5 construct: tyrR (WT); expressed in transfected cells; host or cells: E. coli Nissle 1917 (EcN)
T5 sequence (P07604 whole entry T14V/D103S/E274Q): as the sequence (P07604 whole entry C7V/E274Q) above, with V7C, T14V, D103S counted along it
Procedure: as §1, with “All medium was supplemented with the relevant antibiotics for plasmid maintenance (34 mg/ml chloramphenicol and 100 mg/ml spectinomycin).” left out
200 mL culture samples were collected and transferred to 96-well assay microplates (clear, flat bottom black, Greiner Bio-One). The fluorescence and culture absorbance (Abs) were measured using a Tecan microplate reader (Infinite M200 Pro) as previously described. The fluorescence of GFP was measured with an excitation at 483 nm and emission at 530 nm. The Abs of the samples was measured at 600 nm. The measured fluorescence was normalized by dividing by the Abs and subtracting the same ratio obtained from non-fluorescent wild-type cells (Equation 1). […]

E274Q+T14V TyrR = molecular target: T6, E274Q+T14V TyrR (Escherichia coli, UniProt P07604, E274Q/T14V); assay: cell-based
T6 construct: expressed in transfected cells; host or cells: E. coli Nissle 1917 (EcN), plasmid pAGR157
T6 sequence (P07604 whole entry T14V/E274Q): as the sequence (P07604 whole entry C7V/E274Q) above, with V7C, T14V counted along it
Procedure: as §1, §2, §3

wild-type TyrR = molecular target: T7, wild-type TyrR (Escherichia coli, UniProt P07604); assay: cell-based
T7 construct: tyrR (WT); expressed in transfected cells; host or cells: E. coli Nissle 1917 (EcN)
T7 sequence (P07604 whole entry): as the sequence (P07604 whole entry C7V/E274Q) above, with V7C, Q274E counted along it
Procedure: as §1, §2, §3

E274Q TyrR = molecular target: T8, E274Q TyrR (Escherichia coli, UniProt P07604, E274Q); assay: cell-based
T8 construct: expressed in transfected cells; host or cells: E. coli Nissle 1917 (EcN), plasmid pAGR102
T8 sequence (P07604 whole entry E274Q): as the sequence (P07604 whole entry C7V/E274Q) above, with V7C counted along it
Procedure: as §1, §2, §3

E274Q+D103S TyrR = molecular target: T9, E274Q+D103S TyrR (Escherichia coli, UniProt P07604, D103S/E274Q); assay: cell-based
T9 construct: expressed in transfected cells; host or cells: E. coli Nissle 1917 (EcN), plasmid pAGR159
T9 sequence (P07604 whole entry D103S/E274Q): as the sequence (P07604 whole entry C7V/E274Q) above, with V7C, D103S counted along it
Procedure: as §1, §2, §3

R10F TyrR = molecular target: T10, R10F TyrR (Escherichia coli, UniProt P07604, R10F); assay: cell-based; conditions: ligand alone, listed as Phe
T10 construct: expressed in transfected cells; host or cells: E. coli Nissle 1917 (EcN), plasmid pAGR473
T10 sequence (P07604 whole entry R10F): as the sequence (P07604 whole entry C7V/E274Q) above, with V7C, R10F, Q274E counted along it
Procedure: as §1, §2, §3

[2] = E274Q+C7V TyrR, pAGR160, FIG. 10A, 8 h
[3] = E274Q+T14G TyrR, pAGR156, FIG. 10C, 8 h
[4] = E274Q+D103H TyrR, pAGR158, FIG. 10D, 8 h
[5] = E274Q+L11G TyrR, pAGR155, FIG. 10B, 8 h
[6] = wild-type TyrR, pAGR010, FIG. 1C, 8 h

Which results are given for N[C@@H](Cc1ccccc1)C(=O)O [Phenylalanine, phenylalanine]?
EC50 (E274Q+C7V TyrR): 46 µM; Fmax (E274Q+C7V TyrR; [2]): 10800; Fmin (E274Q+C7V TyrR; [2]): 1120; n (Hill coefficient) (E274Q+C7V TyrR; [2]): 2.5; EC50 (E274Q+T14G TyrR): 37 µM; Fmax (E274Q+T14G TyrR; [3]): 12400; Fmin (E274Q+T14G TyrR; [3]): 1430; n (Hill coefficient) (E274Q+T14G TyrR; [3]): 2.4; EC50 (E274Q+D103H TyrR): 110 µM; Fmax (E274Q+D103H TyrR; [4]): 11800; Fmin (E274Q+D103H TyrR; [4]): 2150; n (Hill coefficient) (E274Q+D103H TyrR; [4]): 1; EC50 (E274Q+L11G TyrR): 45 µM; Fmax (E274Q+L11G TyrR; [5]): 12900; Fmin (E274Q+L11G TyrR; [5]): 5570; n (Hill coefficient) (E274Q+L11G TyrR; [5]): 2.2; response of PtyrP [1]: eliminated; EC50 (E274Q+T14V TyrR; KA (half maximal constant), pAGR157, FIG. 2C, 2E, 8 h): 80 µM and 83 µM; KA relative to the E274Q mutant (E274Q+T14V TyrR; higher than E274Q): 2 fold; Fmax (E274Q+T14V TyrR; pAGR157, FIG. 2C, 2E, 8 h): 7560; Fmin (E274Q+T14V TyrR; pAGR157, FIG. 2C, 2E, 8 h): 814; n (Hill coefficient) (E274Q+T14V TyrR; pAGR157, FIG. 2C, 2E, 8 h): 1.4; fold induction of PtyrP (wild-type TyrR; overexpression of wild-type TyrR): 4 fold; Fmax (wild-type TyrR; [6]): 10500; Fmin (wild-type TyrR; [6]): 2900; n (Hill coefficient) (wild-type TyrR; [6]): 5.5; EC50 (wild-type TyrR; wild-type TyrR, pAGR010, FIG. 1C, 8 h, read-out: KA (half maximal constant)): 73 µM; fold induction of PtyrP (E274Q TyrR): 16 fold; EC50 (E274Q TyrR; KA (half maximal constant), pAGR102, FIG. 2C, 2D, 8 h): 40 µM and 42 µM; Fmax (E274Q TyrR; pAGR102, FIG. 2C, 2D, 8 h): 12800; Fmin (E274Q TyrR; pAGR102, FIG. 2C, 2D, 8 h): 982; n (Hill coefficient) (E274Q TyrR; pAGR102, FIG. 2C, 2D, 8 h): 2; EC50 (E274Q+D103S TyrR; KA (half maximal constant), pAGR159, FIG. 2C, 2F, 8 h): 130 µM and 128 µM; KA relative to the E274Q mutant (E274Q+D103S TyrR; higher than E274Q): 3 fold; Fmax (E274Q+D103S TyrR; pAGR159, FIG. 2C, 2F, 8 h): 10700; Fmin (E274Q+D103S TyrR; pAGR159, FIG. 2C, 2F, 8 h): 1310; n (Hill coefficient) (E274Q+D103S TyrR; pAGR159, FIG. 2C, 2F, 8 h): 0.7; response of PtyrP (R10F TyrR): lack of response; also recorded: no significant response
